Where two headings read alike, the source gives them in different places. Where a SMILES comes first, the peptide text is derived from it. Bridges are numbered along the chain shown (N, C = ends). [ ]: non-standard residue; d: D form. The star is where a group is joined. hPhe(3-Cl-4-CF3) = N[C@@H](CCc1ccc(C(F)(F)F)c(Cl)c1)C(=O)O; NPrPhe(4-Me) = CCCN[C@@H](Cc1ccc(C)cc1)C(=O)O; NMeGly(cPent) = CN[C@H](C(=O)O)C1CCCC1; NMeD = CN[C@@H](CC(=O)O)C(=O)O; NMeL = CN[C@@H](CC(C)C)C(=O)O; Morpholide = C1CN(*)CCO1; Ac5c = NC1(C(=O)O)CCCC1; Aze = O=C(O)[C@@H]1CCN1; Sar = CNCC(=O)O
Experiments:
[1] = biological target: GDP-bound KRAS wild-type protein (Homo sapiens, UniProt P01116); experiment: Binding to KRAS by surface plasmon resonance (SPR), Single Cycle Kinetics
Chain of GDP-bound KRAS wild-type protein (P01116 whole entry): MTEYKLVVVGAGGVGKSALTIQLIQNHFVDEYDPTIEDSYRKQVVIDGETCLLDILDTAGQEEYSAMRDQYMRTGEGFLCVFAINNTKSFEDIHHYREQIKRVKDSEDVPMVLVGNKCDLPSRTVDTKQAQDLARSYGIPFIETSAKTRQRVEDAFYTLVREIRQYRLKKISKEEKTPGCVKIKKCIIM

[2] = test system: human lung cancer strain NCI-H441;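 note: cell proliferation inhibition after four days measured by CellTiter-Glo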
[3] = biological target: GDP-bound HRAS wild-type protein (Homo sapiens, UniProt P01112); experiment: Binding to HRAS by surface plasmon resonance (SPR), Single Cycle Kinetics; conditions: for HRAS/KRAS (ratio of KD value for HRAS to KD value for KRAS) / ratio of the KD value with respect to GDP-bound HRAS wild-type protein to the KD value with respect to KRAS: SPR; for HRAS/KRAS (ratio of KD value for HRAS to KD value for KRAS): GDP-bound HRAS wild-type protein vs GDP-bound KRAS wild-type protein
Chain of GDP-bound HRAS wild-type protein (P01112 whole entry): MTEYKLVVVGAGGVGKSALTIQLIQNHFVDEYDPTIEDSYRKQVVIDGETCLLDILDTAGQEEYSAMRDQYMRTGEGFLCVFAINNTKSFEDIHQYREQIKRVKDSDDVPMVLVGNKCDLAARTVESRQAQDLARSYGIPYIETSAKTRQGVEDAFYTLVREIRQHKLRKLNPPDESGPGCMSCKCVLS

[4] = biological target: GDP-bound NRAS wild-type protein (Homo sapiens, UniProt P01111); experiment: Binding to NRAS by surface plasmon resonance (SPR), Single Cycle Kinetics; conditions: for NRAS/KRAS (ratio of KD value for NRAS to KD value for KRAS) / ratio of the KD value with respect to GDP-bound NRAS wild-type protein to the KD value with respect to KRAS: SPR; for NRAS/KRAS (ratio of KD value for NRAS to KD value for KRAS): GDP-bound NRAS wild-type protein vs GDP-bound KRAS wild-type protein
Chain of GDP-bound NRAS wild-type protein (P01111 whole entry): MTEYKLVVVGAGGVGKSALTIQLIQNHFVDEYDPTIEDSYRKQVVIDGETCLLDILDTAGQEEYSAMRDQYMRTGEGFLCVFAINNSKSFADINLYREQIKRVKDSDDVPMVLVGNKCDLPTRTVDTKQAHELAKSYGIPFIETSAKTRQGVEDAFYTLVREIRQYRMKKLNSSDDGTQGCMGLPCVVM

[5] = SPR, Single Cycle Kinetics, GDP-bound KRAS wild-type protein, read-out: KRAS KD
[6] = read-out: NCI-H441 cell proliferation inhibitory activity, 50% proliferation inhibitory concentration (IC50 value), NCI-H441, four days, CellTiter-Glo

| SMILES | IC50 [2] | HRAS/KRAS (ratio of KD value for HRAS to KD value for KRAS) [3] | NRAS/KRAS (ratio of KD value for NRAS to KD value for KRAS) [4] | ratio of the KD value with respect to GDP-bound HRAS wild-type protein to the KD value with respect to KRAS [3] | ratio of the KD value with respect to GDP-bound NRAS wild-type protein to the KD value with respect to KRAS [4] | IC50 [2, 6] | also measured |
| --- | --- | --- | --- | --- | --- | --- | --- |
| CCCN1C(=O)[C@@H]2CCN2C(=O)[C@H](C)NC(=O)[C@H]([C@@H](C)CC)NC(=O)[C@H](CC(C)C)N(C)C(=O)C[C@@H](C(=O)N2CCOCC2)N(C)C(=O)[C@H](C2CCCC2)N(C)C(=O)C2(CCCC2)NC(=O)[C@@H]2CCCN2C(=O)[C@H](CCc2ccc(C(F)(F)F)c(Cl)c2)NC(=O)CN(C)C(=O)[C@@H]1Cc1ccc(C)cc1 [PP0071] ([NMeL]IA[Aze][NPrPhe(4-Me)][Sar][hPhe(3-Cl-4-CF3)]P[Ac5c][NMeGly(cPent)][NMeD]-Morpholide; lactam N-11) | 3.8 nM |  |  |  |  |  | Kd ([1]; SPR Single Cycle Kinetics, GDP-bound KRAS wild-type protein, 1:1 binding model, read-out: KRAS KD): 0.15 nM |
| CCCCCC[C@H]1C(=O)N[C@@H]([C@@H](C)CC)C(=O)N(C)CC(=O)N(C)[C@H]2C/C=C\CCN(C2=O)[C@@H](Cc2ccc(C(F)(F)F)cc2)C(=O)N(C)CC(=O)N[C@@H](CCc2cc(F)c(C(F)(F)F)c(F)c2)C(=O)N2C[C@H](OCC)C[C@H]2C(=O)NC2(CCC2)C(=O)N(C)[C@@H](C(CC)CC)C(=O)N(C)[C@H](C(=O)N(C)C)CC(=O)N1C [PP1202] | 24.1 nM |  |  |  |  |  | Kd [1, 5]: 0.4 nM |
| CCC[C@H]1C(=O)N[C@@H]([C@@H](C)CC)C(=O)N(C)CC(=O)N(C)[C@H]2C/C=C\CCN(C2=O)[C@@H](Cc2ccc(C)cc2)C(=O)N(C)CC(=O)N[C@@H](CCc2ccc3ccn(C)c3c2)C(=O)N2C[C@H](OCC)C[C@H]2C(=O)NC2(CC(C)(C)C2)C(=O)N(C)[C@@H](C(CC)CC)C(=O)N(C)[C@H](C(=O)N(C)C)CC(=O)N1C [PP2914] | 311 nM |  |  |  |  |  | HRAS/KRAS (ratio of KD value with respect to GDP-bound HRAS wild-type protein to KD value with respect to KRAS) ([3]; SPR KD ratio HRAS/KRAS, class symbols): A (a compound having 10 or more and less than 20 is denoted as A); NRAS/KRAS (ratio of KD value with respect to GDP-bound NRAS wild-type protein to KD value with respect to KRAS) ([4]; SPR KD ratio NRAS/KRAS, class symbols): AA (a compound having 20 or more is denoted as AA) |
| CCC[C@H]1C(=O)N[C@@H]([C@@H](C)CC)C(=O)N(C)CC(=O)N(C)[C@H]2C/C=C\CCN(C2=O)[C@@H](Cc2ccc(C)cc2)C(=O)N(C)CC(=O)N[C@@H](CCc2ccc(C(F)(F)F)c(OC)c2)C(=O)N2C[C@H](OCC)C[C@H]2C(=O)NC2(CC(C)(C)C2)C(=O)N(C)[C@@H](CC(F)(F)F)C(=O)N(C)[C@H](C(=O)N(C)C)CC(=O)N1C [PP3007] | 63.4 nM | A (a compound having 10 or more and less than 20 is denoted as A) | A (a compound having 10 or more and less than 20 is denoted as A) |  |  |  |  |
| CCC[C@H]1C(=O)N[C@@H]([C@@H](C)CC)C(=O)N(C)CC(=O)N(C)[C@H]2C/C=C\CCN(C2=O)[C@@H](Cc2ccc(C)cc2)C(=O)N(C)CC(=O)N[C@@H](CCc2ccc(C(F)(F)F)c(OC)c2)C(=O)N2CC3(CC3)C[C@H]2C(=O)NC2(CC(C)(C)C2)C(=O)N(C)[C@@H]([C@@H](C)CC)C(=O)N(C)[C@H](C(=O)N(C)C)CC(=O)N1C [PP3011] | 31.1 nM | B (a compound having 3 or more and less than 10 is denoted as B) | A (a compound having 10 or more and less than 20 is denoted as A) |  |  |  |  |
| CCC[C@H]1C(=O)N[C@@H]([C@@H](C)CC)C(=O)N(C)CC(=O)N(C)[C@H]2C/C=C\CCN(C2=O)[C@@H](Cc2ccc(C)cc2)C(=O)N(C)CC(=O)N[C@@H](CCc2ccc(C(F)(F)F)c(OC)c2)C(=O)N2CC3(CC3)C[C@H]2C(=O)NC2(CC(C)(C)C2)C(=O)N(C)[C@@H](CC(C)C)C(=O)N(C)[C@H](C(=O)N(C)C)CC(=O)N1C [PP3013] | 29.7 nM | B (a compound having 3 or more and less than 10 is denoted as B) | AA (a compound having 20 or more is denoted as AA) |  |  |  |  |
| CCC[C@H]1C(=O)N[C@@H](C2CCCCC2)C(=O)N(C)CC(=O)N(C)[C@H]2C/C=C\CCN(C2=O)[C@@H](Cc2ccc(C)cc2)C(=O)N(C)CC(=O)N[C@@H](CCc2ccc(C(F)(F)F)c(Cl)c2)C(=O)N2C[C@H](OCC)C[C@H]2C(=O)NC2(CC(C)(C)C2)C(=O)N(C)[C@@H](CC(C)(C)C)C(=O)N(C)[C@H](C(=O)N(C)C)CC(=O)N1C [PP3018] | 19.1 nM | B (a compound having 3 or more and less than 10 is denoted as B) | A (a compound having 10 or more and less than 20 is denoted as A) |  |  |  |  |
| CCC(CC)[C@H]1C(=O)N(C)[C@H](C(=O)N2CCCCC2)CC(=O)N(C)[C@H]2CCC/C=C/c3ccc(cc3)C[C@@H](C(=O)N(C)CC(=O)N[C@@H](CCc3ccc(Cl)c(Cl)c3)C(=O)N3CCC[C@H]3C(=O)NC3(CC(C)(C)C3)C(=O)N1C)N1CC/C=C\C[C@@H](C1=O)N(C)C(=O)CN(C)C(=O)[C@H]([C@@H](C)CC)NC2=O [PP3055] |  | A (a compound having 10 or more and less than 20 is denoted as A) | AA (a compound having 20 or more is denoted as AA) |  |  |  | IC50 ([2]; read-out: NCI-H441 IC50, NCI-H441 cells, four days, CellTiter-Glo): 69.2 nM |
| CCCO[C@@H]1C[C@H]2C(=O)NC3(CC(C)(C)C3)C(=O)N(C)[C@@H](C3CCCC3)C(=O)N(C)[C@H](C(=O)N(C)CC)CC(=O)N(C)[C@H]3CCCc4ccc(cc4)C[C@@H](C(=O)N(C)CC(=O)N[C@@H](CCc4ccc(C(F)(F)F)c(OC)c4)C(=O)N2C1)N1CC/C=C\C[C@@H](C1=O)N(C)C(=O)CN(C)C(=O)[C@H]([C@@H](C)CC)NC3=O [PP3083] |  | A (a compound having 10 or more and less than 20 is denoted as A) | A (a compound having 10 or more and less than 20 is denoted as A) | A (a compound having 10 or more and less than 20 is denoted as A) | A (a compound having 10 or more and less than 20 is denoted as A) | 2.5 nM |  |
| CC[C@H](C)[C@@H]1NC(=O)[C@@H]2CCCc3ccc(cc3)C[C@@H](C(=O)N(C)CC(=O)N[C@@H](CCc3ccc(C(F)(F)F)c(OC)c3)C(=O)N3C[C@H](OC(C)C)C[C@H]3C(=O)NC3(CC(C)(C)C3)C(=O)N(C)[C@@H](C3CCCC3)C(=O)N(C)[C@H](C(=O)N(C)CC)CC(=O)N2C)N2CC/C=C\C[C@@H](C2=O)N(C)C(=O)CN(C)C1=O [PP3084] |  | B (a compound having 3 or more and less than 10 is denoted as B) | A (a compound having 10 or more and less than 20 is denoted as A) | B (a compound having 3 or more and less than 10 is denoted as B) | A (a compound having 10 or more and less than 20 is denoted as A) | 3.7 nM |  |
| CCO[C@@H]1C[C@H]2C(=O)N(C)C3(CC(C)(C)C3)C(=O)N(C)[C@@H](C3CCCC3)C(=O)N(C)[C@H](C(=O)N(C)C)CC(=O)N(C)[C@H]3CCCCCc4ccc(cc4)C[C@@H](C(=O)N(C)CC(=O)N[C@@H](CCc4ccc(C(F)(F)F)c(OC)c4)C(=O)N2C1)N1CC/C=C\C[C@@H](C1=O)N(C)C(=O)CN(C)C(=O)[C@H]([C@@H](C)CC)NC3=O [PP3091] |  | B (a compound having 3 or more and less than 10 is denoted as B) | A (a compound having 10 or more and less than 20 is denoted as A) | B (a compound having 3 or more and less than 10 is denoted as B) | A (a compound having 10 or more and less than 20 is denoted as A) | 1.2 nM |  |
| CC[C@H](C)[C@@H]1NC(=O)[C@H](CC(C)C)N(C)C(=O)CSC[C@H](C(=O)N(C)C)N(C)C(=O)[C@H](C2CCCC2)N(C)C(=O)C2(CCCC2)NC(=O)[C@@H]2CCCN2C(=O)[C@H](CCc2cc(F)c(C(F)(F)F)c(F)c2)NC(=O)CN(C)C(=O)[C@H](Cc2ccc(C(F)(F)F)cc2)N2CC/C=C\C[C@@H](C2=O)N(C)C(=O)CN(C)C1=O [PP3109] |  |  |  |  |  | 3420 nM | Kd ([1]; SPR, Single Cycle Kinetics, 1:1 binding model, read-out: KD value with respect to GDP-bound KRAS wild-type protein): 3000 nM; Kd [1, 5]: 3000 nM |
| CCC[C@H]1C(=O)N[C@@H]([C@@H](C)CC)C(=O)N(C2CC2)CC(=O)N(C)[C@H]2C/C=C\CCN(C2=O)[C@@H](Cc2ccc(C)cc2)C(=O)N(C)CC(=O)N[C@@H](CCc2cc(F)c(C(F)(F)F)c(F)c2)C(=O)N2C[C@H](OCC)C[C@H]2C(=O)N(C)C2(CCC2)C(=O)N(C)[C@@H](C2CCCC2)C(=O)N(C)[C@H](C(=O)N2CCCCC2)CC(=O)N1C [PP3111, (2S,8S,12R,14S,20S,23S,27S,30S,36S,38Z)-20-cyclopentyl-32-cyclopropyl-8-[2-[3,5-difluoro-4-(trifluoromethyl)phenyl]ethyl]-12-ethoxy-4,16,19,22,26,35-hexamethyl-30-[(1S)-1-methylpropyl]-23-(piperidine-1-carbonyl)-27-propyl-2-(p-tolylmethyl)spiro[1,4,7,1016192226293235-undecazatricyclo[34.5.1.0^10,14]dotetracont-38-ene-17,1′-cyclobutane]-3,6,9,15,18,21,25,28,31,34,42-undecone] |  | A (a compound having 10 or more and less than 20 is denoted as A) | A (a compound having 10 or more and less than 20 is denoted as A) | A (a compound having 10 or more and less than 20 is denoted as A) | A (a compound having 10 or more and less than 20 is denoted as A) | 17.8 nM |  |

— patent US20240158446A1, “CYCLIC COMPOUND HAVING SELECTIVE INHIBITORY ACTION ON KRAS OVER HRAS AND NRAS” (CHUGAI SEIYAKU KABUSHIKI KAISHA, priority 2021, published 2024)
